Data as given in patent publication US11473045B2, “Device for in-vitro modelling in-vivo tissues of organs” (priority 2013, dated 2022).

System: Lung bronchial epithelial cells (16HBEo-)
Procedure: FIG. 14 illustrates the effects of a physiologic (10% linear), cyclic mechanical strain on the permeability of an epithelial barrier. Lung bronchial epithelial cells (16HBEo-) were seeded at a density of 250'000 cells/cm^2 onto the fibronectin-coated culturing membrane. The cells were allowed to adhere and to grow for 72 h. The cells were exposed to cyclic strain (10% linear, 0.2 Hz) for 19 h, whereas the control was kept at static conditions. […] After 2 h of incubation, the permeability of each molecule was measured with a fluorescence multiplate reader (Tecan Infinite M1000; Ex:460/Em:515 & Ex:553/Em:627).

In the case of FITC-sodium, the “transmembrane permeability of stretched cells compared to control cells in static conditions” value is reported as “significantly increased transmembrane permeability”.
